For experiment [1], the target named is Lactoylglutathione lyase (Mus musculus, UniProt Q9CPU0). Kind of experiment: Competitive inhibition of recombinant mouse His-tagged Glyoxalase-1 using GSH and MGO as substrate by spectrophotometric method.
Experiment [2] addresses T1, Lactoylglutathione lyase (Homo sapiens, UniProt Q04760). Kind of experiment: Competitive inhibition of human Glyoxalase-1 using GSH and MGO as substrate.
Experiment [3] addresses T1, Lactoylglutathione lyase. Kind of experiment: Inhibition of human Glyoxalase-1.
Experiment [4] has as its target T1, Lactoylglutathione lyase. Kind of experiment: Inhibition of Glyoxalase-1 (unknown origin).
The target in experiment [5] is T1, Lactoylglutathione lyase. Kind of experiment: Competitive inhibition of human Glyoxalase-1 using GSH and MGO as substrate by Michaelis-Menten analysis.

T1 sequence (Q04760 whole entry): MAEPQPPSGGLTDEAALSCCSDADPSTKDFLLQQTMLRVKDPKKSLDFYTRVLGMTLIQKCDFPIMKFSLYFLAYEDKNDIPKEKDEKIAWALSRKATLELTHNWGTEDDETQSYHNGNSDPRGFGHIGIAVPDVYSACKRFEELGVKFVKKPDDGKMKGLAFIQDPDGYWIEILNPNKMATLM
Sequence of Lactoylglutathione lyase (Mus musculus, UniProt Q9CPU0) (Q9CPU0 whole entry): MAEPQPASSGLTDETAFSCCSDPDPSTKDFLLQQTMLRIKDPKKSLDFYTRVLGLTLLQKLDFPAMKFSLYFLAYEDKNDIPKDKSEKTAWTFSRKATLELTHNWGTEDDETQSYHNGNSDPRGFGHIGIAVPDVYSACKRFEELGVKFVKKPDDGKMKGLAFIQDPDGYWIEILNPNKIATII

Usually Ki stands for a dissociation constant, usually derived from enzyme kinetics or from competition with a known ligand. Turning to `COC(=O)c1c(C)cc(Oc2cc(C)cc(O)c2O)cc1O`, the Ki at Lactoylglutathione lyase [1] is 230 nM.

On to `C#Cc1cccc(N(O)C(=O)CC[C@H](NC(=O)CC[C@H](N)C(=O)O)C(=O)NCC(=O)O)c1`, for which the Ki at Lactoylglutathione lyase [2] was determined as 1 nM.

`N[C@@H](CCC(=O)N[C@@H](CSC(=O)N(O)c1ccc(I)cc1)C(=O)NCC(=O)O)C(=O)O` showed a Ki at Lactoylglutathione lyase [3] of 10 nM.

For `C#Cc1ccc(N(O)C(=O)SC[C@H](NC(=O)CC[C@H](N)C(=O)O)C(=O)NCC(=O)O)cc1`, the affinity at Lactoylglutathione lyase [2] corresponds to a Ki of 7 nM.

In general, IC50 refers to the concentration needed to halve the response being measured. A low value points to greater potency in that assay. The compound `NS(=O)(=O)c1ccc2c(c1)S(=O)(=O)NC2=O` yielded an IC50 at Lactoylglutathione lyase [4] of 90000 nM.

With `O=C(O)CNC(=O)[C@H](CSC(=O)N(O)c1ccc(Cl)cc1)NC(=O)CC[C@H](NC(=O)CCNC(=O)CCNC(=O)CCNC(=O)CCNC(=O)CCNC(=O)CCNC(=O)CCCCCCC(=O)NCCC(=O)NCCC(=O)NCCC(=O)NCCC(=O)NCCC(=O)NCCC(=O)N[C@@H](CCC(=O)N[C@@H](CSC(=O)N(O)c1ccc(Cl)cc1)C(=O)NCC(=O)O)C(=O)O)C(=O)O`, the Ki at Lactoylglutathione lyase [5] is 0.96 nM.

Turning to `C#Cc1cccc(N(O)C(=O)SC[C@H](NC(=O)CC[C@H](N)C(=O)O)C(=O)NCC(=O)O)c1`, the Ki at Lactoylglutathione lyase [2] came to 19 nM.

As to `Cc1cc(O)c(O)c(Oc2cc(C)c(C(=O)O)c(O)c2)c1`, the Ki on Lactoylglutathione lyase [1] came out at 150 nM.

The values above are taken from ChEMBL document CHEMBL4402553, “Recent advances in the discovery and development of glyoxalase I inhibitors” (Bioorg Med Chem, 2020).
